# In patent publication US11702417B2, “Compounds for improving mRNA splicing” (The General Hospital Corporation, priority 2015, dated 2023):
# Read-outs that look alike come from different tables or passages of the source.
# Tests used:
# [1] = system: FD (familial dysautomonia) IKBKAP minigene, exon 20 inclusion, in HEK293T cells; test: Primary splicing assay (FD IKBKAP minigene, Firefly/Renilla luciferase reporter in HEK293T); type: cell-based, human; conditions: for Emax / EC (maximum kinetin efficacy): Homo sapiens, HEK-293T; for EC (maximum kinetin efficacy): HEK293T, read-out: ECk (compound concentration at which the maximum kinetin efficacy (200 μM) is reached)
# [2] = system: IKBKAP splicing (exon 20 inclusion) in FD fibroblasts GM04663; test: Secondary assay: IKBKAP splicing analysis by RT-PCR in FD fibroblasts GM04663; type: cell-based; conditions: Homo sapiens, FD fibroblasts GM04663, 24 hours of treatment, read-out: % exon Inclusion Normalized
# [3] = Firefly/Renilla ratio, 24 hours of treatment
# [4] = max efficacy in Primary Assay, Firefly/Renilla ratio, kinetin and DMSO as positive and negative controls, 24 hours of treatment, read-out: Emax (%)
Compound,"EC (maximum kinetin efficacy) [1, 3] [µM]","Emax [1, 4] [%]",further results
Clc1nc(NCc2nccs2)c2cc[nH]c2n1 [(107)],–,–,"Emax ([1]; max efficacy, Firefly only, footnote c: Renilla interference/Firefly only, read-out: Emax (%) Firefly only): 184%; ECk, Firefly only ([1]; Renilla interference/Firefly only (footnote c)): 4.58 µM⁻¹; activation at 0.08 µM [2]: 25.6%; activation at 0.8 µM [2]: 93.2%"
Clc1nc(NCc2ccco2)c2nc(OC3COC3)[nH]c2n1 [(269)],1.39,119,activation at 0.08 µM [2]: 34.8%; activation at 0.8 µM [2]: 102%
CCCOc1nc2c(NCc3nccs3)nc(Cl)nc2[nH]1 [(271)],0.29,206,activation at 0.08 µM [2]: 62.2%; activation at 0.8 µM [2]: 107%
OCCOc1nc2c(NCc3ccco3)nc(Cl)nc2[nH]1 [(275)],0.75,230,activation at 0.08 µM [2]: 37.2%; activation at 0.8 µM [2]: 101%
COc1nc2c(NCc3cncs3)nc(Cl)nc2[nH]1 [(376)],–,23.5,–
O=c1[nH]c2nc(Cl)nc(NCc3nccs3)c2[nH]1 [(377)],7.21,101,–
Clc1nc(NCc2cncs2)c2nc[nH]c2n1 [(378)],–,31.8,–
Fc1nc(NCc2nccs2)c2cc[nH]c2n1 [(379)],–,95,–
Fc1nc(NCc2ccncc2)c2cc[nH]c2n1 [(380)],4.38,108,–
Clc1nc(NCc2cscn2)c2nc[nH]c2n1 [(381)],–,63.4,–
FC(F)COc1nc2c(NCc3ccncc3)nc(Cl)nc2[nH]1 [(382)],1.31,193,–
COc1cccc(Nc2nc(Cl)nc3[nH]cnc23)c1 [(383)],–,30.3,–
FC(F)COc1nc2c(NCc3ccco3)nc(Cl)nc2[nH]1 [(384)],1.08,152,–
COc1nc2c(NCc3nccs3)nc(C#N)nc2[nH]1 [(385)],–,46,–
COc1nc2c(N(CCO)Cc3nccs3)nc(Cl)nc2[nH]1 [(386)],–,69.2,–
FC1(F)CC(COc2nc3c(NCc4ccco4)nc(Cl)nc3[nH]2)C1 [(387)],0.33,238,–
CC(F)(F)COc1nc2c(NCc3nccs3)nc(Cl)nc2[nH]1 [(388)],0.68,215,–
CCCOc1nc2c(NCc3cscn3)nc(Cl)nc2[nH]1 [(389)],0.73,211,–
CC(F)(F)COc1nc2c(NCc3ccco3)nc(Cl)nc2[nH]1 [(390)],0.74,201,–
FC(F)(F)CCOc1nc2c(NCc3nccs3)nc(Cl)nc2[nH]1 [(391)],1.02,193,–
FC(F)(F)COc1nc2c(NCc3cscn3)nc(Cl)nc2[nH]1 [(392)],1.9,134,–

Compound,"EC (maximum kinetin efficacy) [1, 3] [µM]","Emax [1, 4] [%]",further results
CCCOc1nc2c(N(CCO)Cc3nccs3)nc(Cl)nc2[nH]1 [(393)],7.4,85.2,–
O=C1OCCN1CCOc1nc2c(NCc3nccs3)nc(Cl)nc2[nH]1 [(394)],–,4.8,–
FC(F)COc1nc2c(NCc3cscn3)nc(Cl)nc2[nH]1 [(395)],1.8,180,–
O=C1CCCN1CCOc1nc2c(NCc3ccco3)nc(Cl)nc2[nH]1 [(396)],–,38.7,–
CC(=O)NCCOc1nc2c(NCc3nccs3)nc(Cl)nc2[nH]1 [(397)],–,26.3,–
FC(F)(F)CCOc1nc2c(NCc3ccco3)nc(Cl)nc2[nH]1 [(398)],0.94,176,–
CC(C)(COc1nc2c(NCc3nccs3)nc(Cl)nc2[nH]1)OCc1ccccc1 [(400)],–,11.4,–
Clc1nc(NCc2nccs2)c2nc(OCCOc3ccccc3)[nH]c2n1 [(401)],–,41.2,–
O=C1CCCN1CCOc1nc2c(NCc3nccs3)nc(Cl)nc2[nH]1 [(402)],–,21,–
CN(Cc1ccco1)c1ncnc2[nH]cnc12 [(403)],–,39,–
c1cc(CNc2ncnc3[nH]cnc23)ccn1 [(404)],–,51,–
c1nc(NCc2cnn[nH]2)c2nc[nH]c2n1 [(406)],–,20,–
C[C@@H](Nc1ncnc2[nH]cnc12)c1ccco1 [(411)],–,55,–
Clc1cccc(CNc2ncnc3[nH]cnc23)c1 [(415)],–,10.9,–
Clc1ccccc1CNc1[nH]cnc2ncnc1-2 [(426)],–,59,–
c1csc(CNc2[nH]cnc3ncnc2-3)c1 [(438)],–,44,–
COc1ccc(C(=O)Nc2ncnc3[nH]cnc23)cc1 [(441)],–,42.8,–
Fc1ccc(CCNc2ncnc3[nH]cnc23)cc1 [(442)],–,58.6,–
Clc1nc(NCc2cccs2)c2[nH]cnc2n1 [(456)],–,52.3,–
Clc1nc(NCc2ccco2)c2[nH]cnc2n1 [(458)],–,73.1,–
OC[C@H]1O[C@@H](n2cnc3c(NCc4ccco4)ncnc32)[C@H](O)[C@@H]1O [(463)],–,90,–

Compound,"EC (maximum kinetin efficacy) [1, 3] [µM]","Emax [1, 4] [%]",further results
c1nc(NCc2ccoc2)c2nc[nH]c2n1 [(465)],–,–,"Emax ([1]; max efficacy, value marked (RT-PCR), footnote a: Firefly inhibitor, read-out: Emax (%) (RT-PCR)): 26.3%"
Clc1nc2c(c(NCc3ccco3)n1)CCC2 [(466)],3.66,221,–
CC(=O)N1CC(Oc2nc3c(NCc4nccs4)nc(Cl)nc3[nH]2)C1 [(469)],–,13.3,–
Cn1c(=O)[nH]c2nc(Cl)nc(NCc3nccs3)c21 [(470)],–,76.8,–
CC(C)(C)OC(=O)N1CC(COc2nc3c(NCc4nccs4)nc(Cl)nc3[nH]2)C1 [(471)],1.63,149,–
Clc1nc(NCc2ccco2)c2nc(OC[C@@H]3CCOC3)[nH]c2n1 [(472)],1.16,151,–
Clc1nc(NCc2nccs2)c2nc(OC[C@@H]3CCOC3)[nH]c2n1 [(473)],2.1,130,–
Clc1nc(NCc2ccco2)c2nc(OCC#Cc3ccccc3)[nH]c2n1 [(474)],–,24.9,–
Clc1nc(NCc2nccs2)c2nc(OCC#Cc3ccccc3)[nH]c2n1 [(476)],–,25.5,–
CC(C)COc1nc2c(NCc3ccco3)nc(Cl)nc2[nH]1 [(477)],2.28,108,–
CC(C)(C)COc1nc2c(NCc3ccco3)nc(Cl)nc2[nH]1 [(478)],–,84.1,–
CC#CCOc1nc2c(NCc3nccs3)nc(Cl)nc2[nH]1 [(479)],3.23,144,–
Clc1nc(NCc2ccco2)c2nc(OCCOc3ccccc3)[nH]c2n1 [(481)],4.14,93.4,–
CC(C)(C)OCCOc1nc2c(NCc3nccs3)nc(Cl)nc2[nH]1 [(482)],11.1,99.1,–
Clc1nc(NCc2nccs2)c2nc(OCc3ccccc3)[nH]c2n1 [(483)],1.26,138,–
CC#CCOc1nc2c(NCc3ccco3)nc(Cl)nc2[nH]1 [(486)],2.57,150,–
Fc1cc(CNc2nc(Cl)nc3[nH]ccc23)ccn1 [(487)],6.1,114,–
FC1(F)CC(COc2nc3c(NCc4cscn4)nc(Cl)nc3[nH]2)C1 [(488)],1.02,206,–
Clc1nc(NCc2ccco2)c2nc(OCCC3CC3)[nH]c2n1 [(489)],1.21,131,–
Clc1nc(NCc2ccco2)c2nc(OCc3ccccc3)[nH]c2n1 [(490)],0.62,176,–
CC(C)COc1nc2c(NCc3nccs3)nc(Cl)nc2[nH]1 [(491)],0.48,155,–

Compound,"EC (maximum kinetin efficacy) [1, 3] [µM]","Emax [1, 4] [%]",further results
Clc1nc(NCc2ccco2)c2nc(OCCc3ccccc3)[nH]c2n1 [(492)],–,54.5,–
Clc1nc(NCc2cscn2)c2nc(OCC3CCO3)[nH]c2n1 (stereo not drawn) [(493)],3.05,168,–
Fc1cccc(CNc2nc(Cl)nc3[nH]ccc23)n1 [(494)],–,14.1,–
Fc1cccnc1CNc1nc(Cl)nc2[nH]ccc12 [(495)],–,13.9,–
CC(F)(F)COc1nc2c(NCc3cscn3)nc(Cl)nc2[nH]1 [(496)],1.03,233,–
Clc1nc(NCc2cscn2)c2nc(OC3COC3)[nH]c2n1 [(497)],5.56,120,–
Clc1nc(NCc2csnn2)c2cc[nH]c2n1 [(498)],–,37.7,–
FC(F)(F)CCOc1nc2c(NCc3cscn3)nc(Cl)nc2[nH]1 [(499)],1.67,156,–
Clc1nc(NCc2nccs2)c2nc(OCc3ccccn3)[nH]c2n1 [(500)],3,141,–
Clc1nc(NCc2nncs2)c2cc[nH]c2n1 [(501)],–,18.1,–
Clc1nc2c(c(NCc3nccs3)n1)COC2 [(502)],–,28,–
Clc1nc2c(c(NCc3ccco3)n1)COC2 [(503)],–,27.2,–
COC(=O)COc1nc2c(NCc3nccs3)nc(Cl)nc2[nH]1 [(504)],–,80,–
Clc1nc(NCc2nccs2)c2nc(OCc3ncco3)[nH]c2n1 [(505)],8.07,140,–
Clc1nc(NCc2nccs2)c2nc(OCc3cccnc3)[nH]c2n1 [(506)],1.14,144,–
Clc1nc(NCc2nccs2)c2nc(OCc3ccncc3)[nH]c2n1 [(507)],0.77,167,–
CC(C)(C)OC(=O)N1Cc2nc(Cl)nc(NCc3ccco3)c2C1 [(508)],–,80,–
CC(C)(C)OC(=O)N1Cc2nc(Cl)nc(NCc3nccs3)c2C1 [(509)],–,40.8,–
CC(=O)N1Cc2nc(Cl)nc(NCc3nccs3)c2C1 [(510)],–,20,–
O=C(O)COc1nc2c(NCc3nccs3)nc(Cl)nc2[nH]1 [(511)],–,35.1,–
c1nc2nc[nH]c(NC3CCCCCC3)c-2n1 [(512)],–,43.7,–
